What was measured:
[1] = test system: Cryptococcus yeast (CHY3833 and CHY3836); test: Yeast replication secondary screen (OD600); assay type: cell-based, Cryptococcus neoformans serotype D (deneoformans); conditions: 10 μM, 12 h at 30°C
Procedure: (ii) Yeast replication. CHY3833 and CHY3836 were each grown in YPD liquid overnight at 30°C to saturation and then resuspended in 0.5× YPD at an OD600 of 0.005. Strains were aliquoted into 384-well plates with inhibitors and grown for 12 h at 30°C at […] before OD600 readings were taken. Compounds that caused a >10% decrease in growth were considered yeast growth inhibitors.

[2] = test system: normal human dermal fibroblasts (NHDF) cells; test: Fibroblast cytotoxicity (CellTiter-Glo); assay type: cell-based; conditions: 10 µM
Method in brief: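 Normal human dermal fibroblasts, 1 × 10^3 per well, exposed to compounds at 10 μM for 72 h at 37°C. Viability read as ATP-dependent CellTiter-Glo luminescence. Dose-response runs titrated compounds from 80 μM to 0.5 μM in duplicate.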

| Structure (SMILES) | Yeast Inhibition: % Inhibition [1] | Cytotoxicity: Relative Cell Viability (% of Negative Control) [2] |
| --- | --- | --- |
| COc1ccc(-c2noc(CSc3nc4ccsc4c(=O)n3C)n2)cc1 [compound 27373469] | 33.0% | 109.3 % of Negative Control |
| Cc1ccccc1CSc1n[nH]c(=O)c2cc(-c3ccco3)nn12 [compound 27373907] | 49.7% | 97.6 % of Negative Control |
| COc1ccc(-c2noc(-c3cc(-c4cc(C)ccc4C)n[nH]3)n2)cc1OC [compound 27375613] | 9.4% | 94.0 % of Negative Control |
| Cc1nc(C)c(C(=O)NCCn2ncc3c(N4CCN(Cc5ccccc5)CC4)ncnc32)s1 [compound 27460748] | 22.5% | 112.9 % of Negative Control |
| O=C(NC1CCCC1)c1csc(Nc2ccccc2)n1 [compound 30860168] | 82.0% | 93.7 % of Negative Control |
| O=C(NCCOc1ccc(F)cc1)c1ccc(C(F)(F)F)cc1 [compound 30865811] | 68.2% | 100.1 % of Negative Control |
| Cc1nc(Oc2ccccc2)cc(N2CCN(C(=O)/C=C/c3ccccc3)CC2)n1 [compound 42065409] | 15.5% | 90.0 % of Negative Control |
| Cc1nc(C)c(C(=O)NCCn2ncc3c(N4CCN(c5ccc(F)cc5)CC4)ncnc32)s1 [compound 42099839] | 43.6% | 79.3 % of Negative Control |
| O=S(=O)(NCCN1CCN(c2ccc(Cl)cc2)CC1)c1ccc(Cl)s1 [compound 42268033] | 19.1% | 102.4 % of Negative Control |
| Nc1nc(Cl)cc(Nc2cccc(C(F)(F)F)c2)n1 [compound 42589452] | 100.9% | 51.8 % of Negative Control |
| OC(COc1ccc(Br)cc1Br)CN1CCc2ccccc2C1 (stereo not drawn) [compound 43842355] | 76.5% | 28.9 % of Negative Control |
| O=C(C1CCC1)N(Cc1cccnc1)c1nc2ccc(Cl)cc2s1 [compound 43967671] | 78.9% | 97.1 % of Negative Control |
| Cc1cc(-c2nnc(NC(=O)C3Oc4ccccc4OC3C)o2)n(C)n1 (stereo not drawn) [compound 44070699] | -15.7% | 97.2 % of Negative Control |
| CCCc1cc(=O)[nH]c(-n2nc(C)cc2C)n1 [compound 44116743] | 96.0% | 64.3 % of Negative Control |
| Cc1ccc(COC(=O)c2ccc(C3Nc4ccccc4S(=O)(=O)N3)cc2)cc1 (stereo not drawn) [compound 44117349] | 15.4% | 106.4 % of Negative Control |
| O=C(COC(=O)c1ccc(C2Nc3ccccc3S(=O)(=O)N2)cc1)Nc1cc(F)ccc1F (stereo not drawn) [compound 44117394] | 9.7% | 105.4 % of Negative Control |
| Cl.Cl.OC(COc1cccc2ccccc12)CN1CCN(c2ccc(F)cc2)CC1 (stereo not drawn) [compound 45283772] | 44.0% | 96.8 % of Negative Control |
| COc1ccc(CCNC(=O)c2cnn3c(-c4ccc(C)c(C)c4)ccnc23)cc1OC [compound 46074589] | -4.7% | 105.7 % of Negative Control |

| Structure (SMILES) | Yeast Inhibition: % Inhibition [1] | Cytotoxicity: Relative Cell Viability (% of Negative Control) [2] |
| --- | --- | --- |
| Cc1ccc(Nc2ccc(N3CCN(C(=O)Cc4ccc(F)cc4)CC3)nn2)cc1 [compound 49671361] | -10.5% | 102.4 % of Negative Control |
| Cc1noc(C)c1C(=O)N1CCN(c2ccc(-c3noc(C(C)C)n3)cn2)CC1 [compound 49701731] | 1.4% | 102.2 % of Negative Control |
| Cc1cccc(CC(=O)Nc2cc(C)ns2)c1 [compound 49722107] | 32.6% | 98.5 % of Negative Control |
| COc1ccc2nc(N3CCCC(C(=O)O)C3)sc2c1 (stereo not drawn) [compound 53212169] | -17.8% | 105.4 % of Negative Control |
| CC(C)c1nc(-c2ccc(N3CCN(C(=O)Cc4cn(C)c5ccccc45)CC3)nc2)no1 [compound 71780502] | -2.9% | 91.8 % of Negative Control |
| Cc1cc(C(=O)N(CCc2cccs2)C2CC2)c(C)o1 [compound 71781394] | 95.6% | 103.1 % of Negative Control |
| CN(C)CCN(C(=O)c1c[nH]c2ccccc12)c1nc2ccc(OC(F)(F)F)cc2s1.Cl [compound 71782913] | 99.5% | 66.6 % of Negative Control |
| O=C(c1cc(-c2ccco2)on1)N1CCC(c2cccs2)CC1 [compound 71786870] | 39.7% | 90.1 % of Negative Control |
| O=C(CSCc1ccccc1)N1CCC(c2cccs2)CC1 [compound 71786876] | 12.2% | 97.1 % of Negative Control |
| O=C(CCSc1ccccc1)N1CCC(c2cccs2)CC1 [compound 71786877] | 10.0% | 89.8 % of Negative Control |
| O=C(CSCc1ccccc1)N1CCC(c2ccsc2)CC1 [compound 71786985] | 11.0% | 101.7 % of Negative Control |
| O=C(CSc1ccc(F)cc1)N1CCC(c2ccsc2)CC1 [compound 71786989] | 16.0% | 102.2 % of Negative Control |
| O=C(Cc1cccc2ccccc12)N1CCC(c2ccsc2)CC1 [compound 71786990] | 8.3% | 94.3 % of Negative Control |
| Cc1cc(C(=O)NCCC(O)c2cccc3ccccc23)c(C)o1 (stereo not drawn) [compound 71787916] | 28.8% | 101.1 % of Negative Control |
| O=C(Nc1nc2c(s1)CN(C(=O)C1(c3cccs3)CCCC1)CC2)c1ccoc1 [compound 71788301] | 8.3% | 91.4 % of Negative Control |
| COc1cc(NS(=O)(=O)c2cccc(C(F)(F)F)c2)ncn1 [compound 71795763] | -14.5% | 90.4 % of Negative Control |
| Cc1cccc2sc(OC3CN(C(=O)Cc4ccc(F)cc4)C3)nc12 [compound 71796286] | 3.1% | 99.2 % of Negative Control |
| Cc1cc(C(=O)NCCc2nc(C3CC3)cc(C(F)(F)F)n2)c(C)o1 [compound 71797038] | 47.0% | 94.6 % of Negative Control |
